# Test results: ChEMBL document CHEMBL3769391, “Identification of a new cyathane diterpene that induces mitochondrial and autophagy-dependent apoptosis and shows a potent in vivo anti-colorectal cancer activity” (Eur J Med Chem, 2016)
# The source made the active and inactive calls. The calls are words filed in the database; no cut-off is given here.
# Assays:
# HCT-116 [1] = assay: Induction of apoptosis in human HCT116 cells assessed as depolarization of mitochondrial inner transmembrane potential after 24 hrs by TMRE staining based flow cytometry; format: functional, cell-based
# HCT-116 [2] = assay: Induction of apoptosis in human HCT116 cells assessed as early apoptotic cells at 5 uM after 24 hrs by Annexin V-FITC/propidium iodide staining based flow cytometry in presence of DTT (reference value: 2.2%); format: functional
# HCT-116 [3] = assay: Induction of apoptosis in human HCT116 cells assessed as late apoptotic cells at 2.5 uM after 24 hrs by Annexin V-FITC/propidium iodide staining based flow cytometry (reference value: 4.54%); format: functional
# HCT-116 [4] = assay: Induction of apoptosis in human HCT116 cells assessed as early apoptotic cells at 2.5 uM after 24 hrs by Annexin V-FITC/propidium iodide staining based flow cytometry (reference value: 1.06%); format: functional
# [5] = Antitumor activity against human HCT116 cells xenografted in immune deficient nude BALB/c mouse assessed as tumor growth inhibition at 10 mg/kg, ip administered every other day for 2 weeks measured after 2 weeks post last dose relative to control; format: functional; conditions: HCT-116, ip, 336 h, read-out: TGI
# HCT-116 [6] = assay: Induction of apoptosis in Bax deficient human HCT116 cells assessed as early apoptotic cells at 15 uM after 24 hrs by Annexin V-FITC/propidium iodide staining based flow cytometry in presence of DTT (reference value: 0.85%); format: functional
# HCT-116 [7] = assay: Induction of apoptosis in human HCT116 cells assessed as changes in Bax expression at 5 uM after 6 to 24 hrs by Western blot analysis; format: functional, cell-based
# HCT-116 [8] = assay: Induction of apoptosis in human HCT116 cells assessed as changes in Beclin-1 expression at 5 uM after 4 to 12 hrs by Western blot analysis; format: functional, cell-based
# HCT-116 [9] = assay: Induction of chloroquine-induced autophagic flux in human HCT116 cells assessed as increase in LC3-2 level at 5 uM by Western blot analysis; format: functional, cell-based
# Mus musculus [10] = assay: Toxicity in immune deficient nude BALB/c mouse xenografted with Bax deficient human HCT116 cells assessed as discomfort behavioral changes at 5 and 10 mg/kg, ip administered every other day for 2 weeks measured during compound dosing; format: organism-based, HCT-116; conditions: in vivo, 336 h
# Mus musculus [11] = assay: Hepatotoxicity in immune deficient nude BALB/c mouse xenografted with human HCT116 cells assessed as changes in alanine transaminase level in serum at 5 and 10 mg/kg, ip administered every other day for 2 weeks measured during compound dosing; format: toxicity, organism-based, HCT-116; conditions: in vivo, 336 h
# HCT-116 [12] = assay: Induction of apoptosis in human HCT116 cells assessed as viable cells at 5 uM after 24 hrs by Annexin V-FITC/propidium iodide staining based flow cytometry in presence of DTT (reference value: 93.64%); format: functional; conditions: HCT-116, 24 h, read-out: Activity
# HCT-116 [13] = assay: Induction of apoptosis in human HCT116 cells assessed as changes in p53 expression at 5 uM after 6 to 24 hrs by Western blot analysis; format: functional, cell-based
# HCT-116 [14] = assay: Induction of apoptosis in human HCT116 cells assessed as late apoptotic cells at 10 uM after 24 hrs by Annexin V-FITC/propidium iodide staining based flow cytometry (reference value: 4.54%); format: functional
# HCT-116 [15] = assay: Induction of apoptosis in ATG5 knockdown human HCT116 cells assessed as early apoptotic cells at 5 uM after 24 hrs by Annexin V-FITC/propidium iodide staining based flow cytometry (reference value: 1.13%); format: functional
# HCT-116 [16] = assay: Induction of apoptosis in Bax deficient human HCT116 cells assessed as late apoptotic cells at 20 uM after 24 hrs by Annexin V-FITC/propidium iodide staining based flow cytometry (reference value: 1.5%); format: functional
# [17] = Antitumor activity against Bax deficient human HCT116 cells xenografted in immune deficient nude BALB/c mouse assessed as tumor growth inhibition at 10 mg/kg, ip administered every other day for 2 weeks measured after 2 weeks post last dose relative to control; format: functional; conditions: HCT-116, ip, 336 h, read-out: TGI
# SW480 = assay: Induction of apoptosis in human SW480 cells assessed as apoptotic cells at 10 uM after 24 hrs by Annexin V-FITC/propidium iodide staining based flow cytometry; format: functional, cell-based
# Mus musculus [18] = assay: Toxicity in immune deficient nude BALB/c mouse xenografted with human HCT116 cells assessed as discomfort behavioral changes at 5 and 10 mg/kg, ip administered every other day for 2 weeks measured during compound dosing; format: organism-based, HCT-116; conditions: in vivo, 336 h
# HCT-116 [19] = assay: Induction of apoptosis in human HCT116 cells assessed as increase in BimL expression at 5 uM after 6 to 24 hrs by Western blot analysis; format: functional, cell-based
# HCT-116 [20] = assay: Induction of apoptosis in human HCT116 cells assessed as caspase activation at 5 uM after 24 hrs by CaspACEFITC-VAD-FMK staining based flow cytometry (reference value: 7.72%); format: functional
# HCT-116 [21] = assay: Induction of apoptosis in human HCT116 cells assessed as ATG5 cleavage by Western blot analysis in presence of chloroquine; format: functional, cell-based
# HCT-116 [22] = assay: Induction of apoptosis in human HCT116 cells assessed as increase in BimS expression at 5 uM after 6 to 24 hrs by Western blot analysis; format: functional, cell-based
# HCT-116 [23] = assay: Induction of apoptosis in Bax deficient human HCT116 cells assessed as early apoptotic cells at 20 uM after 24 hrs by Annexin V-FITC/propidium iodide staining based flow cytometry (reference value: 1.13%); format: functional
# Mus musculus [24] = assay: Toxicity in immune deficient nude BALB/c mouse xenografted with Bax deficient human HCT116 cells assessed as changes in body weight at 5 and 10 mg/kg, ip administered every other day for 2 weeks measured during compound dosing; format: organism-based, HCT-116; conditions: in vivo, 336 h
# HCT-116 [25] = assay: Induction of apoptosis in human HCT116 cells assessed as apoptotic cells at 5 uM after 24 hrs by Annexin V-FITC/propidium iodide staining based flow cytometry in presence of caspase inhibitor Z-VAD-FMK; format: functional
# HCT-116 [26] = assay: Induction of apoptosis in human HCT116 cells assessed as early apoptotic cells at 7.5 uM after 24 hrs by Annexin V-FITC/propidium iodide staining based flow cytometry (reference value: 1.06%); format: functional
# HCT-116 [27] = assay: Induction of apoptosis in Bax deficient human HCT116 cells assessed as early apoptotic cells at 15 uM after 24 hrs by Annexin V-FITC/propidium iodide staining based flow cytometry in presence of NAC (reference value: 0.85%); format: functional
# HCT-116 [28] = assay: Induction of apoptosis in Bax deficient human HCT116 cells assessed as late apoptotic cells at 5 uM after 24 hrs by Annexin V-FITC/propidium iodide staining based flow cytometry (reference value: 1.5%); format: functional
# Mus musculus [29] = assay: Hepatotoxicity in immune deficient nude BALB/c mouse xenografted with Bax deficient human HCT116 cells assessed as changes in alanine transaminase level in serum at 5 and 10 mg/kg, ip administered every other day for 2 weeks measured during compound dosing; format: toxicity, organism-based, HCT-116; conditions: in vivo, 336 h
# Mus musculus [30] = assay: Hepatotoxicity in immune deficient nude BALB/c mouse xenografted with Bax deficient human HCT116 cells assessed as changes in albumin level in serum at 5 and 10 mg/kg, ip administered every other day for 2 weeks measured during compound dosing; format: toxicity, organism-based, HCT-116; conditions: in vivo, 336 h
# HCT-116 [31] = assay: Induction of autophagy in human HCT116 cells assessed as ATG5-ATG12 complex at 5 uM after 4 to 12 hrs by Western blot analysis; format: functional, cell-based
smiles,measurement,setting,value
CO[C@@H]1C(C=O)=CC[C@@H]2C3=C(C(C)C)CC[C@]3(C)CC[C@@]2(C)[C@H]1O,Activity,HCT-116 [1],Dose-dependent effect
same,Activity,HCT-116 [2],5.58%
same,Activity,HCT-116 [3],7.54%
same,Activity,HCT-116 [4],2.23%
same,inhibition in vivo at 10 mg/kg,[5],62.2%
same,Activity,HCT-116 [6],2.67%
same,Activity,HCT-116 [7],inactive
same,Activity,HCT-116 [8],inactive
same,Activity,HCT-116 [9],Active
same,Activity,Mus musculus [10],Non-toxic
same,Activity,Mus musculus [11],Non-toxic
same,viability at 5 µM,HCT-116 [12],80.8%
same,Activity,HCT-116 [13],inactive
same,Activity,HCT-116 [14],22.57%
same,Activity,HCT-116 [15],2.36%
same,Activity,HCT-116 [16],32.25%
same,inhibition in vivo at 10 mg/kg,[17],60.1%
same,Activity,SW480,Active
same,Activity,Mus musculus [18],Non-toxic
same,Activity,HCT-116 [19],Active
same,Activity,HCT-116 [20],70.08%
same,Activity,HCT-116 [21],inactive
same,Activity,HCT-116 [22],Active
same,Activity,HCT-116 [23],56.15%
same,Activity,Mus musculus [24],Non-toxic
same,Activity,HCT-116 [25],28.81%
same,Activity,HCT-116 [26],51.38%
same,Activity,HCT-116 [27],1.42%
same,Activity,HCT-116 [28],4.14%
same,Activity,Mus musculus [29],Non-toxic
same,Activity,Mus musculus [30],Non-toxic
same,Activity,HCT-116 [31],Active
